Assay results reported in ChEMBL document CHEMBL5131385, “Novel piperazine based benzamide derivatives as potential anti-glioblastoma agents inhibiting cell proliferation and cell cycle progression” (Eur J Med Chem, 2022).
The source made the active and inactive calls. No cut-off for these calls is given here.

Tests used:
U-251 [1] = assay: Antiproliferative activity against human U-251 cells assessed as inhibition of cell proliferation measured after 72 hrs by CCK8 assay; assay type: functional, cell-based; details: U-251, 72 h
C6 = assay: Antiproliferative activity against rat C6 cells assessed as inhibition of cell proliferation measured after 72 hrs by CCK8 assay; assay type: functional, cell-based; details: C6, 72 h
U-251 [2] = assay: Antiproliferative activity against human U-251 cells assessed as inhibition of cell proliferation upto 72 hrs by CCK8 assay; assay type: functional, cell-based; details: TDE = time-dependent effect
U-87MG ATCC [3] = assay: Antiproliferative activity against human U-87 MG cells assessed as release of LDH in supernatant and measured after 72 hrs by microplate reader assay; assay type: functional, cell-based; details: DDE = dose-dependent effect
U-251 [4] = assay: Antiproliferative activity against human U-251 cells assessed as release of LDH in supernatant and measured after 72 hrs by microplate reader assay; assay type: functional, cell-based; details: DDE = dose-dependent effect
U-251 [5] = assay: Antiproliferative activity against human U-251 cells assessed as reduction in colony number at 0.25 to 1 uM for 2 to 3 weeks by crystal violet staining based plate clone formation assay; assay type: functional, cell-based; details: dose 0.25-1 µM, time 2-3 weeks, DDE = dose-dependent effect
U-87MG ATCC [6] = assay: Antiproliferative activity against human U-87 MG cells assessed as reduction in colony number at 0.125 to 0.5 uM for 2 to 3 weeks by crystal violet staining based plate clone formation assay; assay type: functional, cell-based; details: dose 0.125-0.5 µM, time 2-3 weeks, DDE = dose-dependent effect
U-87MG ATCC [7] = assay: Induction of apoptosis in human U-87 MG cells assessed as formation of spindle shaped cells at 0.075 to 1.20 uM measured after 72 hrs by Giemsa staining based microscopic analysis; assay type: functional, cell-based; details: dose 0.075-1.2 µM
U-251 [8] = assay: Induction of apoptosis in human U-251 cells assessed as formation of spindle shaped cells at 0.375 to 6 uM measured after 72 hrs by Giemsa staining based microscopic analysis; assay type: functional, cell-based; details: dose 0.375-6 µM
[9] = Induction of apoptosis in human U-87 MG cells assessed as viable cells at 1.20 uM incubated for 72 hrs by Annexin V-FITC/PI staining based flow cytometry method (reference value: 96.84 %); assay type: functional, U-87MG ATCC; details: read-out: Activity
[10] = Induction of apoptosis in human U-87 MG cells assessed as early apoptotic cells at 1.20 uM incubated for 72 hrs by Annexin V-FITC/PI staining based flow cytometry method (reference value: 2.53 %); assay type: functional, U-87MG ATCC; details: dose 1.2 µM
[11] = Induction of apoptosis in human U-87 MG cells assessed as late apoptotic cells at 1.20 uM incubated for 72 hrs by Annexin V-FITC/PI staining based flow cytometry method (reference value: 0.42 %); assay type: functional, U-87MG ATCC; details: dose 1.2 µM
[12] = Induction of apoptosis in human U-87 MG cells assessed as early apoptotic cells at 0.075 uM incubated for 72 hrs by Annexin V-FITC/PI staining based flow cytometry method (reference value: 2.53 %); assay type: functional, U-87MG ATCC
[13] = Induction of apoptosis in human U-87 MG cells assessed as early apoptotic cells at 0.30 uM incubated for 72 hrs by Annexin V-FITC/PI staining based flow cytometry method (reference value: 2.53 %); assay type: functional, U-87MG ATCC; details: dose 0.3 µM
[14] = Induction of apoptosis in human U-87 MG cells assessed as necrotic cells at 0.30 uM incubated for 72 hrs by Annexin V-FITC/PI staining based flow cytometry method (reference value: 0.21 %); assay type: functional, U-87MG ATCC; details: dose 0.3 µM
U-251 [15] = assay: Induction of apoptosis in human U-251 cells assessed as necrotic cells at 0.375 uM incubated for 72 hrs by Annexin V-FITC/PI staining based flow cytometry method (Rvb =0.51 %); assay type: functional
U-251 [16] = assay: Induction of apoptosis in human U-251 cells assessed as viable cells at 1.50 uM incubated for 72 hrs by Annexin V-FITC/PI staining based flow cytometry method (reference value: 96.22 %); assay type: functional; details: read-out: Activity
U-251 [17] = assay: Induction of apoptosis in human U-251 cells assessed as early apoptotic cells at 1.50 uM incubated for 72 hrs by Annexin V-FITC/PI staining based flow cytometry method (Rvb =1.96 %); assay type: functional; details: dose 1.5 µM
U-251 [18] = assay: Induction of apoptosis in human U-251 cells assessed as late apoptotic cells at 1.50 uM incubated for 72 hrs by Annexin V-FITC/PI staining based flow cytometry method (Rvb =1.31 %); assay type: functional; details: dose 1.5 µM
U-251 [19] = assay: Induction of apoptosis in human U-251 cells assessed as necrotic cells at 1.50 uM incubated for 72 hrs by Annexin V-FITC/PI staining based flow cytometry method (Rvb =0.51 %); assay type: functional; details: dose 1.5 µM
U-87MG ATCC [20] = assay: Induction of cell cycle arrest in human U-87 MG cells assessed as accumulation at G0/G1 phase at 0.075 to 1.2 uM and measured after 72 hrs by flow cytometry; assay type: functional, cell-based; details: dose 0.075-1.2 µM, DDE = dose-dependent effect
U-87MG ATCC [21] = assay: Induction of cell cycle arrest in human U-87 MG cells assessed as decrease in accumulation at S phase at 0.075 to 1.20 uM measured after 72 hrs by flow cytometry; assay type: functional, cell-based; details: dose 0.075-1.2 µM, DDE = dose-dependent effect
U-87MG ATCC [22] = assay: Induction of cell cycle arrest in human U-87 MG cells assessed as decrease in accumulation at G2/M phase at 0.075 to 1.20 uM measured after 72 hrs by flow cytometry; assay type: functional, cell-based; details: dose 0.075-1.2 µM, DDE = dose-dependent effect
U-87MG ATCC [23] = assay: Antimigratory activity in human U-87 MG cells assessed as inhibition of cell migration by measuring wound closure at 0.125 to 0.50 uM and measured after 24 hrs by wound healing assay; assay type: functional, cell-based; details: dose 0.125-0.5 µM, DDE = dose-dependent effect
U-251 [24] = assay: Antimigratory activity in human U-251 cells assessed as inhibition of cell migration by measuring wound closure at 0.25 to 1.0 uM and measured after 24 hrs by transwell migration assay; assay type: functional, cell-based; details: dose 0.25-1 µM, DDE = dose-dependent effect
[25] = Half life in Sprague-Dawley rat plasma at 100 mg/kg, ip and measured upto 240 mins by LC-MS analysis; assay type: ADME, organism-based
[26] = Tmax in Sprague-Dawley rat plasma at 100 mg/kg, ip and measured upto 240 mins by LC-MS analysis; assay type: ADME, organism-based
[27] = Cmax in Sprague-Dawley rat brain at 100 mg/kg, ip and measured upto 240 mins by LC-MS analysis; assay type: ADME, organism-based; set-up: time < 240 min, dose 100 mg/kg, route ip
[28] = AUC (0 to t) in Sprague-Dawley rat brain at 100 mg/kg, ip and measured upto 240 mins by LC-MS analysis; assay type: ADME, organism-based; set-up: dose 100 mg/kg, time < 240 min, route ip
[29] = AUC (0 to infinity) in Sprague-Dawley rat plasma at 100 mg/kg, ip and measured upto 240 mins by LC-MS analysis; assay type: ADME, organism-based; set-up: time < 240 min, dose 100 mg/kg, route ip
[30] = AUC (0 to infinity) in Sprague-Dawley rat brain at 100 mg/kg, ip and measured upto 240 mins by LC-MS analysis; assay type: ADME, organism-based; set-up: dose 100 mg/kg, time < 240 min, route ip
[31] = Acute toxicity in Kunming mouse assessed as pathological changes in spleen at 600 mg/kg, ip measured after 24 hrs by H and E staining analysis; assay type: organism-based; details: in vivo
[32] = Acute toxicity in Kunming mouse assessed as pathological changes in kidney at 600 mg/kg, ip measured after 24 hrs by H and E staining analysis; assay type: organism-based; details: in vivo
U-251 [33] = assay: Upregulation of p16 INK4a gene expression in human U-251 cells at 0.075 to 1.2 uM measured after 72 hrs by western blot analysis; assay type: functional, cell-based; details: dose 0.075-1.2 µM

In the case of `COCCN1CCN(c2ccc(F)cc2C(=O)Nc2ccc(CNC(=O)OCc3cccnc3)cc2)CC1`, the IC50 (U-251 [1]) is reported as 1280 nM, the IC50 (C6) is reported as 150 nM and the Activity (U-251 [2]) is reported as “Tde”. The Activity (U-87MG ATCC [3]) was “Dde”, the Activity (U-251 [4]) was “Dde” and the Activity (U-251 [5]) was “Dde”. The Activity (U-87MG ATCC [6]) was “Dde”, the Activity (U-87MG ATCC [7]) was “Active” and the Activity (U-251 [8]) was “Active”. The viability at 1.2 µM [9] was 70.3%, the Activity [10] was 17.92% and the Activity [11] was 9.97%. It also gave an Activity [12] of 2.76%, an Activity [13] of 4.51% and an Activity [14] of 0.34%. For the same compound, the Activity (U-251 [15]) was 0.53%, the viability at 1.5 µM (U-251 [16]) was 93.7% and the Activity (U-251 [17]) was 2.9%. For the same compound, the Activity (U-251 [18]) was 2.47%, the Activity (U-251 [19]) was 0.94% and the Activity (U-87MG ATCC [20]) was “Dde”. For the same compound, the Activity (U-87MG ATCC [21]) was “Dde”, the Activity (U-87MG ATCC [22]) was “Dde” and the Activity (U-87MG ATCC [23]) was “Dde”. For the same compound, the Activity (U-251 [24]) was “Dde”, the half-life [25] was 52.8 min and the Tmax [26] was 30 min. It also gave a Cmax [27] of 92.5 µg/mL, an AUC(0-t) at 4 h [28] of 97000 ng·h/mL and an AUC(0-inf) [29] of 95500 ng·h/mL. The AUC(0-inf) [30] was 102000 ng·h/mL, the Activity [31] was “Non-Toxic” and the Activity [32] was “Non-Toxic”. For the same compound, the Activity (U-251 [33]) was “Active”.
